In article PMC13242297, “Drug response profile-based machine learning enables strategic cell line and compound selection for drug development” (Bioinformatics, 2026):
Like-named read-outs stand apart in the source and are kept apart here.

Assays:
Format in all cases: cell-based
MCF10A cells = test: Cell Titer-Glo 3D cell viability assay, 48 h, MCF10A
Method: (§1) Cell Culture: Cell viability was assessed using the MCF7 and MCF10A cell lines. Cells were maintained in relevant media throughout the study, in an incubator set to 37°C and 5% CO2, with media changes every 2–3 days. […] Compound plate preparation: […] Plates were sealed and stored at −4°C prior to use. Viability Assay: […] Plates were incubated for 48 h in a humidified incubator set to 37°C and 5% CO2. […] Cat #G9682). Plates were centrifuged briefly and incubated protected from light for 30 min at 30°C. Luminescence signal was measured using a CLARIOstar Plus microplate reader (BMG Labtech). Data Analysis: Raw relative luminescence unit (RLU) data were de-randomised prior to background subtraction. Viability was determined as a percentage of vehicle control (DMSO only). % Viability = ((Sample RLU—Mean Positive Control) ÷ (Mean Negative Control—Mean Positive Control)) × 100.

MCF7 cells = test: Cell Titer-Glo 3D cell viability assay, 48 h, MCF7
Method: as §1

[1] = Cell Titer-Glo 3D cell viability assay, 48 h, MCF10A; settings: human, MCF10A cells, MCF10A, 48 h, % of vehicle control
Method: as §1

[2] = Homo sapiens, MCF-10A; MCF10A, 48 h viability; read-out: IC50
[3] = Homo sapiens, MCF-10A; read-out: MCF10 IC50 Reached
[4] = Homo sapiens, MCF7; read-out: MCF7 IC50 Reached

| SMILES | IC50 (MCF10A cells; [2]) [µM] | IC50 (MCF10A cells; [3]) [µM] | IC50 (MCF7 cells; [4]) [µM] | IC50 (in words) (MCF10A cells; MCF10A, up to […]) | IC50 (in words) (MCF7 cells; MCF7, up to […]) | also measured |
| --- | --- | --- | --- | --- | --- | --- |
| Nc1ccn([C@@H]2O[C@H](CO)[C@@H](O)C2(F)F)c(=O)n1 [Gemcitabine] | < 0.25 | < 2.5 | > 2.5 | – | – | – |
| Cc1cc([C@@H](C)Nc2ccccc2C(=O)O)c2nc(N3CCOCC3)cc(=O)n2c1 [AZD 6482] | – | > 2.5 | > 2.5 | did not reach IC50 values | did not reach IC50 values | – |
| CC[C@@H]1C(=O)N(C)c2cnc(Nc3ccc(C(=O)NC4CCN(C)CC4)cc3OC)nc2N1C1CCCC1 [BI 2536] | – | – | – | – | – | viability at 48 h, […] ([1]; 0.0025 uM): 92.4%; viability at 48 h, […] ([1]; 0.025 uM): 67.7%; viability at 48 h, […] ([1]; 0.25 uM): 72.3%; viability at 48 h, […] ([1]; 2.5 uM): 33.9%; IC50 (MCF10A cells; Homo sapiens, MCF-10A, 48 h): ~1 µM; IC50 (MCF10A cells; Homo sapiens, MCF-10A, read-out: MCF10 IC50 Reached): < 2.5 µM; IC50 (MCF7 cells; Homo sapiens, MCF7, 48 h): < 0.1 µM; IC50 (MCF7 cells; Homo sapiens, MCF7, read-out: MCF7 IC50 Reached): < 2.5 µM |
| NS(=O)(=O)OC[C@@H]1C[C@@H](n2ccc3c(N[C@H]4CCc5ccccc54)ncnc32)C[C@@H]1O [Pevonedistat] | > 2.5 | > 2.5 | < 2.5 | – | – | IC50 (MCF7 cells; Homo sapiens; MCF7, 48 h viability; read-out: IC50): < 0.1 µM |
| Nc1nc2[nH]cc(CCc3ccc(C(=O)N[C@@H](CCC(=O)O)C(=O)O)cc3)c2c(=O)[nH]1 [Pemetrexed] | – | > 2.5 | > 2.5 | did not reach IC50 values | did not reach IC50 values | – |
| Nc1ccn([C@@H]2O[C@H](CO)[C@@H](O)[C@@H]2O)c(=O)n1 [Cytarabine] | – | > 2.5 | > 2.5 | – | – | – |
